Each structure is given as a SMILES string.

In this experiment the target is one or more of HDAC-4, HDAC-5, HDAC-6, HDAC-7, HDAC-8, HDAC-9, HDAC-10 and HDAC-11. Put plainly: Inhibition of histone deacetylase enzymatic activity (summary statement over isoforms). In kind it is biochemical. To be noted: Table 3, selected examples; HDAC isoform not given. Summed up: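 Activity was measured as deacetylation of the fluorogenic substrate Boc-Lys(trifluoroacetyl)-AMC over 20-30 min at 37 °C, after a 5 min room-temperature preincubation of enzyme with compound. Trypsin (1 mg/mL) with a reference HDAC inhibitor ended the reaction.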
`O=C(NO)C(c1ccc(N2CCOCC2)cc1)c1c(F)cccc1F` (stereo not shown) [Compound 6-24, 2-(2,6-difluorophenyl)-N-hydroxy-2-(4-morpholinophenyl)acetamide] returned an IC50 of 1 to 15 µM.

`O=C(NO)C(c1ccc(N2CCOCC2)cc1)c1cccc2ccccc12` (stereo not shown) [Compound 5-122, N-hydroxy-2-(4-morpholinophenyl)-2-(naphthalen-1-yl)acetamide] gave an IC50 of less than 1 µM.

`O=C(NO)C(c1ccccc1)N1CCC(c2ccccc2)CC1` (stereo not shown) [Compound 1-44, N-hydroxy-2-phenyl-2-(4-phenylpiperidin-1-yl)acetamide]: the concentration for half-maximal inhibition (IC50) is less than 1 µM.

Regarding `O=C(NO)C(c1ccccc1)N1CCN(c2ccc(C(F)(F)F)cc2)CC1` (stereo not shown) [Compound 5-43, N-hydroxy-2-phenyl-2-(4-(4-(trifluoromethyl)phenyl)piperazin-1-yl)acetamide], the IC50 is less than 1 µM.

As to `O=C(NO)C(c1ccccc1)c1ccc(OCc2ccccc2)cc1` (stereo not shown) [Compound 5-33, 2-(4-(benzyloxy)phenyl)-N-hydroxy-2-phenylacetamide], the IC50 was less than 1 µM.

In turn, `O=C(NO)C(c1ccc(N2CCOCC2)cc1)c1cccc(O)c1` (stereo not shown) [Compound 6-23, N-hydroxy-2-(3-hydroxyphenyl)-2-(4-morpholinophenyl)acetamide] displayed an IC50 of less than 1 µM.

On to `O=C(NO)C(c1ccccc1)c1ccc(-c2cncnc2)cc1` (stereo not shown) [Compound 5-23, N-hydroxy-2-phenyl-2-(4-(pyrimidin-5-yl)phenyl)acetamide], for which the IC50 was less than 1 µM.

`O=C(NO)C(Sc1nc2ccccc2s1)c1ccccc1` (stereo not shown) [Compound 1-24, 2-(benzo[d]thiazol-2-ylthio)-N-hydroxy-2-phenylacetamide] came in with a half-maximal inhibitory concentration (IC50) of less than 1 µM.

For the compound `CCN(CCN(C)C)c1ccc(C(C(=O)NO)c2ccccc2)cc1` (stereo not shown) [Compound 6-43], the IC50 is less than 1 µM.

In turn, `O=C(NO)C(c1ccccc1)c1ccc(N2CCN(Cc3ccccc3)CC2)cc1` (stereo not shown) [Compound 5-65, 2-(4-(4-benzylpiperazin-1-yl)phenyl)-N-hydroxy-2-phenylacetamide] showed an IC50 of less than 1 µM.

`Cc1ccc(OC(C(=O)NO)c2ccccc2)c2c1CCC2` (stereo not shown) [Compound 7-35, N-hydroxy-2-(7-methyl-2,3-dihydro-1H-inden-4-yloxy)-2-phenylacetamide] registered a half-inhibitory concentration (IC50) of 1 to 15 µM.

`O=C(NO)C(c1ccccc1)c1cccc(-c2ccc(Oc3ccccc3)cc2)c1` (stereo not shown) [Compound 2-100, N-hydroxy-2-(4′-phenoxybiphenyl-3-yl)-2-phenylacetamide] had an IC50 of 1 to 15 µM.

On to `C=CCOc1cccc(C(C(=O)NO)c2ccccc2)c1` (stereo not shown) [Compound 3-24, 2-(3-(allyloxy)phenyl)-N-hydroxy-2-phenylacetamide], for which the IC50 lay in the range of 1 to 15 µM.

As to `O=C(NO)C(c1ccccc1)c1ccc(-c2cccnc2)cc1` (stereo not shown) [Compound 5-12, N-hydroxy-2-phenyl-2-(4-(pyridin-3-yl)phenyl)acetamide], the 50% inhibitory concentration (IC50) is less than 1 µM.

Take `COc1ccccc1C(C(=O)NO)c1ccc(N2CCOCC2)cc1` (stereo not shown) [Compound 5-129, N-hydroxy-2-(2-methoxyphenyl)-2-(4-morpholinophenyl)acetamide]: the IC50 fell in the range of 1 to 15 µM.

The compound `O=C(Nc1ccc(C(C(=O)NO)c2ccccc2)cc1)C1CCCCC1` (stereo not shown) [Compound 2-57, N-(4-(2-(hydroxyamino)-2-oxo-1-phenylethyl)phenyl)cyclohexanecarboxamide] had an IC50 of less than 1 µM.

`CCCS(=O)(=O)Nc1ccc(C(C(=O)NO)c2ccccc2)cc1` (stereo not shown) [Compound 2-86, N-hydroxy-2-phenyl-2-(4-(propylsulfonamido)phenyl)acetamide] displayed a half-inhibitory concentration (IC50) of less than 1 µM.

`O=C(Nc1ccc(C(C(=O)NO)c2ccccc2)cc1)c1ccc2c(c1)OCO2` (stereo not shown) [Compound 2-75, N-(4-(2-(hydroxyamino)-2-oxo-1-phenylethyl)phenyl)benzo[d][1,3]dioxole-5-carboxamide] showed a concentration for half-maximal inhibition (IC50) of less than 1 µM.

In turn, `O=C(NO)C(c1ccccc1)c1nnc(-c2ccc(C(F)(F)F)cc2)s1` (stereo not shown) [Compound 5-37, N-hydroxy-2-phenyl-2-(5-(4-(trifluoromethyl)phenyl)-1,3,4-thiadiazol-2-yl)acetamide] returned an IC50 of less than 1 µM.

Consider `Cc1ccc(S(=O)(=O)N2CCN(C3(C(=O)NO)CCc4ccccc43)CC2)cc1` (stereo not shown) [Compound 6-18, N-hydroxy-1-(4-(p-tolylsulfonyl)piperazin-1-yl)-2,3-dihydro-1H-indene-1-carboxamide], for which the IC50 is 1 to 15 µM.

`O=C(NO)C(c1ccc(Cl)cc1)c1ccc(Cl)cc1` [Compound 1-15, 2,2-bis(4-chlorophenyl)-N-hydroxyacetamide]: the IC50 was less than 1 µM.

The compound `O=C(NO)C(c1ccccc1)c1ccc(OCCOc2ccccc2)cc1` (stereo not shown) [Compound 3-64, N-hydroxy-2-(4-(2-phenoxyethoxy)phenyl)-2-phenylacetamide] displayed a half-maximal inhibitory concentration (IC50) of less than 1 µM.

For `O=C(NO)C(c1ccccc1)c1ccc(OCc2ccc(F)cc2F)cc1` (stereo not shown) [Compound 3-67, 2-(4-(2,4-difluorobenzyloxy)phenyl)-N-hydroxy-2-phenylacetamide], the concentration for half-maximal inhibition (IC50) is less than 1 µM.

Turning to `O=C(NO)C(c1ccccc1)N1CCC(c2c[nH]c3ccccc23)CC1` (stereo not shown) [Compound 1-34, 2-(4-(1H-indol-3-yl)piperidin-1-yl)-N-hydroxy-2-phenylacetamide], the half-inhibitory concentration (IC50) is less than 1 µM.

Compound `O=C(NO)C(c1ccccc1)N1CCC(c2ccc(F)cc2)CC1` (stereo not shown) [Compound 5-62, 2-(4-(4-fluorophenyl)piperidin-1-yl)-N-hydroxy-2-phenylacetamide] yielded an IC50 of less than 1 µM.

On to `O=C(NO)C(c1ccccc1)c1cccc(OCCN2CCCC2)c1` (stereo not shown) [Compound 3-19, N-hydroxy-2-phenyl-2-(3-(2-(pyrrolidin-1-yl)ethoxy)phenyl)acetamide], for which the IC50 is less than 1 µM.

The compound `CS(=O)(=O)c1ccc(-c2cccc(C(C(=O)NO)c3ccccc3)c2)cc1` (stereo not shown) [Compound 2-110, N-hydroxy-2-(4′-(methylsulfonyl)biphenyl-3-yl)-2-phenylacetamide] gave a 50% inhibitory concentration (IC50) of less than 1 µM.

`CC(=O)Nc1ccc(C(C(=O)NO)c2ccccc2)cc1` (stereo not shown) [Compound 3-13, 2-(4-acetamidophenyl)-N-hydroxy-2-phenylacetamide]: the half-inhibitory concentration (IC50) was less than 1 µM.

`CC(C)CCOc1cccc(C(C(=O)NO)c2ccccc2)c1` (stereo not shown) [Compound 3-30, N-hydroxy-2-(3-(isopentyloxy)phenyl)-2-phenylacetamide] yielded a 50% inhibitory concentration (IC50) of 1 to 15 µM.

Take `O=C(Cc1ccccc1)Nc1ccc(C(C(=O)NO)c2ccccc2)cc1` (stereo not shown) [Compound 2-59, N-hydroxy-2-phenyl-2-(4-(2-phenylacetamido)phenyl)acetamide]: the IC50 is less than 1 µM.

Compound `Cc1cc(C(=O)Nc2ccc(C(C(=O)NO)c3ccccc3)cc2)c(C)o1` (stereo not shown) [Compound 2-63, N-(4-(2-(hydroxyamino)-2-oxo-1-phenylethyl)phenyl)-2,5-dimethylfuran-3-carboxamide] gave an IC50 of less than 1 µM.

As to `CC(C)Nc1cccc(C(C(=O)NO)c2ccccc2)c1` (stereo not shown) [Compound 3-72, N-hydroxy-2-(3-(isopropylamino)phenyl)-2-phenylacetamide], the IC50 was 1 to 15 µM.

For `O=C(NO)C(c1ccccc1)c1ccc(NCc2ccncc2)cc1` (stereo not shown) [Compound 2-80, N-hydroxy-2-phenyl-2-(4-(pyridin-4-ylmethylamino)phenyl)acetamide], the IC50 was less than 1 µM.

Turning to `CC(C)Nc1ccc(C(C(=O)NO)c2ccccc2)cc1` (stereo not shown) [Compound 3-79, N-hydroxy-2-(4-(isopropylamino)phenyl)-2-phenylacetamide], the half-inhibitory concentration (IC50) is less than 1 µM.

What is called IC50 is the concentration that gives 50% inhibition. Read a low IC50 as higher potency.

The values above are taken from patent publication US9096565B2, “Inhibitors of histone deacetylase” (MethylGene Inc., priority 2007, dated 2015).
